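48-hour exposure; five concentrations; linearly interpolated endpoints. The concentration for 50% growth inhibition is given as GI50. TGI: concentration producing complete growth inhibition.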
Tests used:
Assay in all cases: DTP human tumour cell line panel, 48 h; in the data active = GI50 below about 0.43 µM; inactive = the rest
786-0 renal = test system: 786-0 renal
A498 renal = test system: A498 renal
A549 NSCLC = test system: A549 NSCLC
ACHN renal = test system: ACHN renal
BT-549 breast = test system: BT-549 breast
CAKI-1 renal = test system: CAKI-1 renal
CCRF-CEM leukemia = test system: CCRF-CEM leukemia
COLO 205 colon = test system: COLO 205 colon
DU-145 prostate = test system: DU-145 prostate
EKVX NSCLC = test system: EKVX NSCLC
HCC-2998 colon = test system: HCC-2998 colon
HCT-116 colon = test system: HCT-116 colon
HCT-15 colon = test system: HCT-15 colon
HL-60(TB) leukemia = test system: HL-60(TB) leukemia
HOP-62 NSCLC = test system: HOP-62 NSCLC
HOP-92 NSCLC = test system: HOP-92 NSCLC
HS 578T breast = test system: HS 578T breast
HT29 colon = test system: HT29 colon
IGROV1 ovarian = test system: IGROV1 ovarian
K-562 leukemia = test system: K-562 leukemia
KM12 colon = test system: KM12 colon
LOX IMVI melanoma = test system: LOX IMVI melanoma
M14 melanoma = test system: M14 melanoma
MALME-3M melanoma = test system: MALME-3M melanoma
MCF7 breast = test system: MCF7 breast
MDA-MB-231 breast = test system: MDA-MB-231 breast
MDA-MB-435 = test system: MDA-MB-435
MOLT-4 leukemia = test system: MOLT-4 leukemia
NCI-H226 lung = test system: NCI-H226 lung
NCI-H23 lung = test system: NCI-H23 lung
NCI-H460 lung = test system: NCI-H460 lung
NCI-H522 lung = test system: NCI-H522 lung
NCI/ADR-RES ovarian = test system: NCI/ADR-RES ovarian
OVCAR-3 ovarian = test system: OVCAR-3 ovarian
OVCAR-4 ovarian = test system: OVCAR-4 ovarian
OVCAR-5 ovarian = test system: OVCAR-5 ovarian
OVCAR-8 ovarian = test system: OVCAR-8 ovarian
PC-3 prostate = test system: PC-3 prostate
RPMI-8226 leukemia = test system: RPMI-8226 leukemia
RXF 393 renal = test system: RXF 393 renal
SF-268 CNS = test system: SF-268 CNS
SF-295 CNS = test system: SF-295 CNS
SF-539 CNS = test system: SF-539 CNS
SK-MEL-2 melanoma = test system: SK-MEL-2 melanoma
SK-MEL-28 melanoma = test system: SK-MEL-28 melanoma
SK-MEL-5 melanoma = test system: SK-MEL-5 melanoma
SK-OV-3 ovarian = test system: SK-OV-3 ovarian
SN12C renal = test system: SN12C renal
SNB-19 CNS = test system: SNB-19 CNS
SNB-75 CNS = test system: SNB-75 CNS
SR leukemia = test system: SR leukemia
SW-620 colon = test system: SW-620 colon
T-47D breast = test system: T-47D breast
TK-10 renal = test system: TK-10 renal
U251 CNS = test system: U251 CNS
UACC-257 melanoma = test system: UACC-257 melanoma
UACC-62 melanoma = test system: UACC-62 melanoma
UO-31 renal = test system: UO-31 renal

O=C(/C=C/c1ccccc1Cl)Nc1ncc(Cc2cc(Cl)ccc2Cl)s1
8.4 µM: TGI (BT-549 breast)
3.46 µM: TGI (RXF 393 renal)
inactive: GI50 (786-0 renal) 5.16 µM | GI50 (A498 renal) 0.975 µM | GI50 (A549 NSCLC) 2.09 µM | GI50 (ACHN renal) 8.28 µM | GI50 (BT-549 breast) 1.15 µM | GI50 (CAKI-1 renal) 4.23 µM | GI50 (CCRF-CEM leukemia) 0.909 µM | GI50 (COLO 205 colon) 1.21 µM | GI50 (DU-145 prostate) 2.04 µM | GI50 (EKVX NSCLC) 2.4 µM | GI50 (HCC-2998 colon) 2.71 µM | GI50 (HCT-116 colon) 0.939 µM | GI50 (HCT-15 colon) 0.634 µM | GI50 (HL-60(TB) leukemia) 1.24 µM | GI50 (HOP-62 NSCLC) 6.14 µM | GI50 (HOP-92 NSCLC) 1.3 µM | GI50 (HS 578T breast) 1.14 µM | GI50 (HT29 colon) 2.46 µM | GI50 (IGROV1 ovarian) 1.31 µM | GI50 (KM12 colon) 1.21 µM | GI50 (LOX IMVI melanoma) 1.85 µM | GI50 (M14 melanoma) 2.04 µM | GI50 (MALME-3M melanoma) 4.54 µM | GI50 (MCF7 breast) 0.674 µM | GI50 (MDA-MB-231 breast) 2.66 µM | GI50 (MOLT-4 leukemia) 1.21 µM | GI50 (NCI-H226 lung) 9.17 µM | GI50 (NCI-H23 lung) 0.686 µM | GI50 (NCI-H460 lung) 3.6 µM | GI50 (NCI-H522 lung) 0.7 µM | GI50 (NCI/ADR-RES ovarian) 2.99 µM | GI50 (OVCAR-3 ovarian) 3.44 µM | GI50 (OVCAR-4 ovarian) 21.3 µM | GI50 (OVCAR-5 ovarian) 2.36 µM | GI50 (OVCAR-8 ovarian) 4.03 µM | GI50 (PC-3 prostate) 3.86 µM | GI50 (RPMI-8226 leukemia) 1.36 µM | GI50 (RXF 393 renal) 0.916 µM | GI50 (SF-268 CNS) 12.5 µM | GI50 (SF-295 CNS) 2.34 µM | GI50 (SF-539 CNS) 2.79 µM | GI50 (SK-MEL-2 melanoma) 3.01 µM | GI50 (SK-MEL-28 melanoma) 9.29 µM | GI50 (SK-MEL-5 melanoma) 2.8 µM | GI50 (SK-OV-3 ovarian) 7.39 µM | GI50 (SN12C renal) 1.95 µM | GI50 (SNB-19 CNS) 4.23 µM | GI50 (SNB-75 CNS) 0.576 µM | GI50 (SR leukemia) 0.534 µM | GI50 (SW-620 colon) 1.25 µM | GI50 (T-47D breast) 6.72 µM | GI50 (TK-10 renal) 7.13 µM | GI50 (U251 CNS) 2.9 µM | GI50 (UACC-257 melanoma) 9.11 µM | GI50 (UACC-62 melanoma) 3.27 µM | GI50 (UO-31 renal) 6.52 µM
> 63.8 µM: TGI (RPMI-8226 leukemia)
0.79 µM: TGI (MDA-MB-435)
71.2 µM: TGI (SF-295 CNS)
9.82 µM: TGI (SNB-75 CNS)
> 100 µM: TGI (786-0 renal) | TGI (A549 NSCLC) | TGI (ACHN renal) | TGI (CAKI-1 renal) | TGI (CCRF-CEM leukemia) | TGI (DU-145 prostate) | TGI (EKVX NSCLC) | TGI (HCC-2998 colon) | TGI (HCT-116 colon) | TGI (HCT-15 colon) | TGI (HOP-62 NSCLC) | TGI (HT29 colon) | TGI (IGROV1 ovarian) | TGI (K-562 leukemia) | TGI (KM12 colon) | TGI (LOX IMVI melanoma) | TGI (M14 melanoma) | TGI (MALME-3M melanoma) | TGI (MCF7 breast) | TGI (MDA-MB-231 breast) | TGI (MOLT-4 leukemia) | TGI (NCI-H226 lung) | TGI (NCI-H23 lung) | TGI (NCI-H460 lung) | TGI (NCI/ADR-RES ovarian) | TGI (OVCAR-3 ovarian) | TGI (OVCAR-4 ovarian) | TGI (OVCAR-5 ovarian) | TGI (OVCAR-8 ovarian) | TGI (PC-3 prostate) | TGI (SF-268 CNS) | TGI (SK-MEL-2 melanoma) | TGI (SK-MEL-28 melanoma) | TGI (SK-MEL-5 melanoma) | TGI (SK-OV-3 ovarian) | TGI (SN12C renal) | TGI (SNB-19 CNS) | TGI (SR leukemia) | TGI (SW-620 colon) | TGI (T-47D breast) | TGI (TK-10 renal) | TGI (U251 CNS) | TGI (UACC-257 melanoma) | TGI (UACC-62 melanoma) | TGI (UO-31 renal)
13.6 µM: TGI (SF-539 CNS)
5.7 µM: TGI (HL-60(TB) leukemia)
> 31.7 µM: TGI (COLO 205 colon)
2.56 µM: TGI (NCI-H522 lung)
active: GI50 (K-562 leukemia) 0.406 µM | GI50 (MDA-MB-435) 0.263 µM

Source: PubChem BioAssay (NCI)
